PMC4357015, “Structure, Function and Inhibition of the Phosphoethanolamine Methyltransferases of the Human Malaria Parasites Plasmodium vivax and Plasmodium knowlesi” (Scientific Reports, 2015)

Experiments:
PkPMT [1] = molecular target: T1, PkPMT (Plasmodium knowlesi, UniProt A0A384KJX3); assay: radiometric PMT transmethylation assay, inhibition of PkPMT; format: biochemical
T1 sequence (A0A384KJX3 1-264): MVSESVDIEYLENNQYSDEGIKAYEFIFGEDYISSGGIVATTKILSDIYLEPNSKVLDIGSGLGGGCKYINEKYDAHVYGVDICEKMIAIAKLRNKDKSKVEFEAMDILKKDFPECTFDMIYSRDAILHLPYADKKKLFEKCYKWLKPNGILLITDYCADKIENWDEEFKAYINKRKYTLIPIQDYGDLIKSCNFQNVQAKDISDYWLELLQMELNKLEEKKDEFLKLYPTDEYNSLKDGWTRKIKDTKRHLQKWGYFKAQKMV
Protocol: (§1) Figure 3 Amodiaquine (AQ) and NSC158011 inhibit the activity of PvPMT and PkPMT. Enzyme inhibition assays with different concentrations of Amodiaquine (AQ), NSC158011 and Chloroquine (CQ) were carried out at constant P-Etn (2 mM) and SAM (1.5 mM) concentrations. The activity in the absence of any drug was taken as 100% and % enzyme activity was calculated in the presence of different drug concentrations (100, 500, 1000 μM). To determine the concentration that results in 50% inhibition of enzyme activity (IC50), the data were fitted to a non-linear regression analysis in the following equation Y = 100/(1 + ([X]/IC50)), where Y is % enzyme activity and X is drug concentration using Graph pad software.
(§2) For enzyme kinetics studies recombinant histidine-tagged proteins were expressed using 1 mM IPTG for 4 h, purified using Ni-affinity purification and dialyzed. As expected, purified proteins migrated in SDS-PAGE gels at approximately 31 kDa. The purified proteins were stored in HEPES-KOH buffer (pH 7.4) at 4°C and were assayed within a month of purification. During this time, the integrity of the protein was assessed by SDS-PAGE. The kinetic properties of enzymes were assessed using radiometric assay wherein incorporation of radioactive labeled methyl donor (100nCi [methyl-^14C] SAM, Perkin elmer NEC363010UC) or (200nCi [methyl-^3H] SAM, Perkin Elmer NET155H250UC) was measured. […]

PvPMT [2] = molecular target: T2, PvPMT (Plasmodium vivax, UniProt A5K867); assay: radiometric PMT transmethylation assay, inhibition of PvPMT; format: biochemical
T2 sequence (A5K867 1-264): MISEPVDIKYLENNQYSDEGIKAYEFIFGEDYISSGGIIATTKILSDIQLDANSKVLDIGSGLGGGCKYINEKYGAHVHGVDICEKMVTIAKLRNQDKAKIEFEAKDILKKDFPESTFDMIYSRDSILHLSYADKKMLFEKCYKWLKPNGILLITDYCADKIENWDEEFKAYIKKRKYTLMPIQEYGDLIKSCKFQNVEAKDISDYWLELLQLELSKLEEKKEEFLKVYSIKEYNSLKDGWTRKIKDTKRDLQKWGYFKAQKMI
Protocol: as §1, §2

PvPMT [3] = molecular target: T2, PvPMT; assay: kinetic parameters of PvPMT, radiometric assay; format: biochemical; conditions: varied substrate, other constant (SAM 1.5 mM or P-Etn 2.0 mM)
Protocol: (§3) Figure 2 Analysis of kinetic parameters of P.vivax (top panel) and P. knowlesi PMT enzymes (bottom panel). The Km values for phosphoethanolamine (P-Etn) was determined under standard assay conditions with varying concentrations of P-Eth (0–800 μM) and at constant S-adenosylmethionine (SAM) concentration of 1.5 mM. The Km values for SAM were determined under standard assay conditions with varying concentrations of SAM (0–600 μM) and at constant P-Etn concentration of 2.0 mM. All data were fitted to the Michaelis-Menten equation, v = (kcat [Et][S])/(Km + [S]) using Graph pad software.
(§4) For enzyme kinetics studies recombinant histidine-tagged proteins were expressed using 1 mM IPTG for 4 h, purified using Ni-affinity purification and dialyzed. As expected, purified proteins migrated in SDS-PAGE gels at approximately 31 kDa. The purified proteins were stored in HEPES-KOH buffer (pH 7.4) at 4°C and were assayed within a month of purification. During this time, the integrity of the protein was assessed by SDS-PAGE. The kinetic properties of enzymes were assessed using radiometric assay wherein incorporation of radioactive labeled methyl donor (100nCi [methyl-^14C] SAM, Perkin elmer NEC363010UC) or (200nCi [methyl-^3H] SAM, Perkin Elmer NET155H250UC) was measured. The enzymatic assay conditions were carried out in 100 μl volume containing 0.1 M Hepes, KOH (pH8.6), 2 mM Na2EDTA and10% glycerol. For NSC158011 related studies, 10% DMSO was added to the reaction mixture. Purified enzyme (322 nM) was used in each reaction and the reactions were incubated at 37°C for 30 minutes, thereafter the reaction was terminated using 1 ml cold water. Afterwards, the product was purified by batch purification using AG (H+ resin) (Biorad # 142-1451) using the protocol provided by the manufacturer. The product was eluted from resin using 1.5 ml of 0.1 N HCl and total radioactivity was measured using the scintillation cocktail (Biosafe II).
(§5) To determine the Km value for P-Eth, enzymatic reactions were carried out with 0-0.8 mM of P-Eth at constant 1.5 mM SAM. Similarly Km value for SAM was carried with 0–0.6 mM SAM at constant 2 mM P-Ethanolamine (P-Etn). The inhibition of PvPMT and PkPMT by AQ, CQ and NSC158011were also examined using the same radiometric PMT transmethylation assay. Enzyme activity was evaluated at 0, 100, 500 and 1000 μM of the inhibitor at a fixed concentration of P-Eth (2 mM) and SAM (1.5 mM). To calculate IC50 the data was fitted to non-linear regression analysis in the following equation Y = 100/(1 + ([X]/IC50)), where Y is % enzyme activity and X is inhibitor concentration using Graph pad software.

PkPMT [4] = molecular target: T1, PkPMT; assay: kinetic parameters of PkPMT, radiometric assay; format: biochemical; conditions: varied substrate, other constant (SAM 1.5 mM or P-Etn 2.0 mM)
Protocol: as §3, §4, §5

[5] = substrate: C[S+](CC[C@H](N)C(=O)[O-])C[C@H]1O[C@@H](n2cnc3c(N)ncnc32)[C@H](O)[C@@H]1O; assay: kinetic parameters of PvPMT, radiometric assay; format: biochemical, Plasmodium vivax; conditions: other: PvPMT; varied substrate, other constant (SAM 1.5 mM or P-Etn 2.0 mM); 37.0 °C
Protocol: as §3, §4
(§6) To determine the Km value for P-Eth, enzymatic reactions were carried out with 0-0.8 mM of P-Eth at constant 1.5 mM SAM. […]

[6] = substrate: C[S+](CC[C@H](N)C(=O)[O-])C[C@H]1O[C@@H](n2cnc3c(N)ncnc32)[C@H](O)[C@@H]1O; assay: kinetic parameters of PkPMT, radiometric assay; format: biochemical, Plasmodium knowlesi; conditions: other: PkPMT; varied substrate, other constant (SAM 1.5 mM or P-Etn 2.0 mM); 37.0 °C
Protocol: as §3, §4, §6

For `CCN(CC)CCCC(C)Nc1ccnc2cc(Cl)ccc12` (stereo not shown) [CQ, chloroquine], the IC50 (PkPMT [1]) was 987 µM and the IC50 (PvPMT [2]) was 146 µM.

`C[S+](CC[C@H](N)C(=O)[O-])C[C@H]1O[C@@H](n2cnc3c(N)ncnc32)[C@H](O)[C@@H]1O` (stereo partly shown) [SAM, S-adenosylmethionine] gave a Vmax (PvPMT [3]) of 12.62 ± 0.95 nmolmin^−1 mg^−1Protein and a Vmax (PkPMT [4]) of 119.7 ± 15.41 nmolmin^−1 mg^−1Protein.

Work on `NCCOP(=O)(O)O` [P-Etn, phosphoethanolamine] yielded a Kcat (PvPMT [3]) of 0.00083 ± 0.00017 s⁻¹, a Km (PvPMT [3]) of 210 ± 70 µM and a Vmax (PvPMT [3]) of 18.67 ± 2.93 nmolmin^−1 mg^−1Protein. The Kcat (PkPMT [4]) was 0.00433 ± 0.00033 s⁻¹, the Km (PkPMT [4]) was 100 ± 30 µM and the Vmax (PkPMT [4]) was 86.01 ± 8.35 nmolmin^−1 mg^−1Protein.

B1: PvPMT (Plasmodium vivax Sal-1) (protein)
chain: T2 sequence (A5K867 1-264)
Work on B1 yielded a Km [5] of 230 ± 70 µM, a kcat [5] of 0.000667 ± 0.000333 s⁻¹ and a kcat/Km [5] of 2.83 M⁻¹ s⁻¹.

B2: PkPMT (Plasmodium knowlesi strain H) (protein)
chain: T1 sequence (A0A384KJX3 1-264)
B2 showed a Km [6] of 270 ± 90 µM, a kcat [6] of 0.00617 ± 0.0005 s⁻¹ and a kcat/Km [6] of 22.8 M⁻¹ s⁻¹.
